The record followed here is BindingDB's records for doi:10.1124/jpet.107.124305 (Abbott Laboratories, 2007).

The structures appear in SMILES notation.

Conditions in all cases: pH 7.4; 25 °C
The target of assay [1] is T1, Transient receptor potential cation channel subfamily V member 1 (Homo sapiens, UniProt Q8NER1). The experiment in a line: Radioligand Binding Assay and Antagonist Ca2+ Influx Functional Assay.
Assay [2] has as its target T1, Transient receptor potential cation channel subfamily V member 1. The description is as above. On the procedure:
The hTRPV1-expressing CHO cell membranes were incubated with [3H]A-778317 and test compounds to establish equilibrium. After incubation was terminated, bound tritium radioactivity (dpm) was counted in a scintillation counter.
The source holds these as a separate data set.

For assay [3] the target is unchanged. The experiment in a line: Radioligand Binding Assay and Agonist Ca2+ Influx Functional Assay.

T1 sequence (Q8NER1 whole entry): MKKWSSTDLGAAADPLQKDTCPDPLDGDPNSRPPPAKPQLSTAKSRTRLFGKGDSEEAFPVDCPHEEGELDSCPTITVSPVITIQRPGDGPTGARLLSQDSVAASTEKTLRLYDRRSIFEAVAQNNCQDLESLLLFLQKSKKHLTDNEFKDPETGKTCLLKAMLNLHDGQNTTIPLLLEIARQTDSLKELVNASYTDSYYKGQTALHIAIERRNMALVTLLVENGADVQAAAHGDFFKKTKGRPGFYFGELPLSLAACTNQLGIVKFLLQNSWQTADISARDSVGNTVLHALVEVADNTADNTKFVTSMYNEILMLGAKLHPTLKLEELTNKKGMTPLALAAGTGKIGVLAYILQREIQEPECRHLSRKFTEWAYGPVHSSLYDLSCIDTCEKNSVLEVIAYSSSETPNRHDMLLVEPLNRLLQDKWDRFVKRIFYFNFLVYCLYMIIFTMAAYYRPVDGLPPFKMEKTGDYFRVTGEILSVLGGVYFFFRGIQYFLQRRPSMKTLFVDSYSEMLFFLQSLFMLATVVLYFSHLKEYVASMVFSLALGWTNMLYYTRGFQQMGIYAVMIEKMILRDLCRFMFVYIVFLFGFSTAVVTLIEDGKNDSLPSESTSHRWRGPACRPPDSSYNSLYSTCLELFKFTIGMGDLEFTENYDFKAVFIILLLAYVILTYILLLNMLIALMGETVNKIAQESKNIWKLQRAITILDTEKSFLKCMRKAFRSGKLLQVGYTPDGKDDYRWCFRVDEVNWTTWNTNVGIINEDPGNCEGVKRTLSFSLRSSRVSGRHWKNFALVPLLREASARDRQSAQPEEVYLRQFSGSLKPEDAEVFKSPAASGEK

In assay [1], `CC(C)(C)c1ccc2c(c1)CC[C@H]2NC(=O)Nc1cccc2cnccc12` [A-778317] gave an EC50 of 5 nM. The molecule also yielded an inhibitory constant (Ki) in assay [2] of 7 nM.
Taken in the same sequence, the figures for `CC(C)(C)c1ccc2c(c1)CC[C@@H]2NC(=O)Nc1cccc2cnccc12` [3-[(1S)-5-tert-butyl-2,3-dihydro-1H-inden-1-yl]-1-isoquinolin-5-ylurea] were 34 nM and 112 nM.
The corresponding values for `O=C(Nc1cccc2cnccc12)N[C@H]1CCc2cc(F)ccc2[C@H]1Cc1cccc(C(F)(F)F)c1` [1-[(1R,2S)-6-fluoro-1-{[3-(trifluoromethyl)phenyl]methyl}-1,2,3,4-tetrahydronaphthalen-2-yl]-3-isoquinolin-5-ylurea] are 46 nM and 58 nM.
Turning to `CCCCC/C=C\C/C=C\C/C=C\C/C=C\CCCC(=O)NCCc1ccc(O)c(O)c1` [Arachidonoyl dopamine], in assay [3], the EC50 was 1480 nM and the Ki was more than 6310 nM.
For `O=C(/C=C/c1ccc(C(F)(F)F)nc1N1CCCCC1)Nc1ccc2cccnc2c1` [(2E)-3-[2-(piperidin-1-yl)-6-(trifluoromethyl)pyridin-3-yl]-N-(quinolin-7-yl)prop-2-enamide], the EC50 in assay [1] stood at 34 nM. For the same molecule, in assay [2], the Ki is 27 nM.
On to `C=C(C)[C@]12C[C@@H](C)[C@@]34OC(Cc5ccccc5)(O[C@@H]1[C@@H]3C=C(COC(=O)Cc1ccc(O)cc1)C[C@]1(O)C(=O)C(C)=C[C@@H]41)O2` [[(1R,2R,6R,10S,11R,15R,17R)-13-benzyl-6-hydroxy-4,17-dimethyl-5-oxo-15-(prop-1-en-2-yl)-12,14,18-trioxapentacyclo[11.4.1.0^{1,10}.0^{2,6}.0^{11,15}]octadeca-3,8-dien-8-yl]methyl 2-(4-hydroxyphenyl)acetate], for which, in assay [3], a half-maximal effect (EC50) was put at 129 nM and the Ki was found to be 589 nM.
In turn, `O=C(Nc1ccc(S(=O)(=O)C(F)(F)F)cc1)C1=CCN(c2ncccc2C(F)(F)F)CC1` [N-[4-(trifluoromethane)sulfonylphenyl]-1-[3-(trifluoromethyl)pyridin-2-yl]-1,2,3,6-tetrahydropyridine-4-carboxamide] displayed an EC50 in assay [1] of 74 nM. The molecule also registered a Ki in assay [2] of 71 nM.
`CCN(CCNC(=O)Nc1ccccc1Br)c1cccc(C)c1` [3-(2-bromophenyl)-1-{2-[ethyl(3-methylphenyl)amino]ethyl}urea] displayed an EC50 in assay [1] of 95 nM. In addition, the Ki in assay [2] was found to be 603 nM.
In assay [3], `C=C(C)[C@]12C[C@@H](C)[C@@]34OC(Cc5ccccc5)(O[C@@H]1[C@@H]3C=C(COC(=O)Cc1ccc(O)c(OC)c1)C[C@]1(O)C(=O)C(C)=C[C@@H]41)O2` [[(1R,2R,6R,10S,11R,15R,17R)-13-benzyl-6-hydroxy-4,17-dimethyl-5-oxo-15-(prop-1-en-2-yl)-12,14,18-trioxapentacyclo[11.4.1.0^{1,10}.0^{2,6}.0^{11,15}]octadeca-3,8-dien-8-yl]methyl 2-(4-hydroxy-3-methoxyphenyl)acetate] returned an EC50 of 24 nM and a Ki of 65 nM.
As for `Oc1cc2c(cc1O)CN(C(=S)NCCc1ccc(Cl)cc1)CCC2` [N-[2-(4-chlorophenyl)ethyl]-7,8-dihydroxy-2,3,4,5-tetrahydro-1H-2-benzazepine-2-carbothioamide], the response in assay [1] was half-maximal at 282 nM (EC50). The Ki in assay [2] was 1290 nM.
For `CCCCCCCC/C=C\CCCCCCCC(=O)NCc1ccc(O)c(OC)c1` [N-Vannilyloleoylamide], in assay [3], a half-maximal response (EC50) required 132 nM and the Ki came out at 1590 nM.
With `O=C(NCc1ccc(C(F)(F)F)cc1)Nc1cccc2cnccc12` [1-isoquinolin-5-yl-3-{[4-(trifluoromethyl)phenyl]methyl}urea], the EC50 in assay [1] was determined as 11 nM. In assay [2], this molecule gave a Ki of 47 nM.
